Data on one compound can be found in patent US9006224B2, “Neuroendocrine tumor treatment” (Novartis AG, priority 2005, dated 2015).

Holding throughout (assay type): cell-based
The subject of assay [1] is A cell line, e.g. A549, KB-31 and HCT116 lines. Put plainly: Antiproliferative activity in combination with other agents (Calcusyn combination index). The following applies: e.g. with somastatin or a somastatin analogue, 3 days incubation, methylene blue staining. As for the experimental part: (§1) Subsequently, a two-fold dilution series of each compound (an mTOR inhibitor other than Compound A or a known chemotherapeutic agent) is made in separate tubes (starting at 8× the IC50 of each compound) either alone or in paired combinations, and the dilutions are added to the wells.
(§2) The cells are then re-incubated for 3 days. Methylene blue staining is performed on day 4 and the amount of bound dye (proportional to the number of surviving cells that bind the dye) determined. IC50s are subsequently determined using the Calcusyn program, which provides a measure of the interaction, namely the so-called non-exclusive combination index (CI), where: CI˜1=the interaction is nearly additive; 0.85-0.9=slight synergism; <0.85=synergy.

Assay [2] relates to cells which are otherwise resistant to endocrine agent treatment. Put plainly: In vitro studies: restoring activity of endocrine agents in resistant cells. The text has this:
Several studies have implicated aberrant activity of the Akt kinase as a significant mechanism by which breast cancer tumors are unresponsive to endocrine therapy.

The next assay concerns KB-31. Put plainly: Antiproliferative activity, methylene blue staining, KB-31 line. As for the experimental part:
as §1, §2

The next assay deals with A549 line. Description: Antiproliferative activity, methylene blue staining, A549 line. As for the experimental part:
as §1, §2

The test system of another assay is HCT116. Put plainly: Antiproliferative activity, methylene blue staining, HCT116 line. As for the experimental part:
as §1, §2

Structures are written as SMILES.

With `CO[C@H]1C[C@@H]2CC[C@@H](C)[C@@](O)(O2)C(=O)C(=O)N2CCCC[C@H]2C(=O)O[C@H]([C@H](C)C[C@@H]2CC[C@@H](OCCO)[C@H](OC)C2)CC(=O)[C@H](C)/C=C(\C)[C@@H](O)[C@@H](OC)C(=O)[C@H](C)C[C@H](C)/C=C/C=C/C=C/1C` [Compound A, 40-O-(2-hydroxyethyl)-rapamycin], in assay [1], the “antiproliferative activity in combination with another chemotherapeutic agent” value is “interesting antiproliferative activity”. Besides, the “restoration of activity of endocrine agents (estrogen inhibitors and/or aromatase inhibitors)” value in assay [2] is “able to restore activity of endocrine agents”. Besides, the IC50 result is “micromolar range” with KB-31, “low nM range” with A549 line and “micromolar range” with HCT116.
